The values below come from ChEMBL document CHEMBL1129640, “Assessment of structural requirements for the monoamine oxidase-B-catalyzed oxidation of 1,4-disubstituted-1,2,3,6-tetrahydropyridine derivatives related to the neurotoxin 1-methyl-4-phenyl-1,2,3,6-tetrahydropyridine” (J Med Chem, 1996).

The first data set deals with T1, Amine oxidase [flavin-containing] B (Bos taurus, UniProt P56560).
T1 sequence (P56560 whole entry): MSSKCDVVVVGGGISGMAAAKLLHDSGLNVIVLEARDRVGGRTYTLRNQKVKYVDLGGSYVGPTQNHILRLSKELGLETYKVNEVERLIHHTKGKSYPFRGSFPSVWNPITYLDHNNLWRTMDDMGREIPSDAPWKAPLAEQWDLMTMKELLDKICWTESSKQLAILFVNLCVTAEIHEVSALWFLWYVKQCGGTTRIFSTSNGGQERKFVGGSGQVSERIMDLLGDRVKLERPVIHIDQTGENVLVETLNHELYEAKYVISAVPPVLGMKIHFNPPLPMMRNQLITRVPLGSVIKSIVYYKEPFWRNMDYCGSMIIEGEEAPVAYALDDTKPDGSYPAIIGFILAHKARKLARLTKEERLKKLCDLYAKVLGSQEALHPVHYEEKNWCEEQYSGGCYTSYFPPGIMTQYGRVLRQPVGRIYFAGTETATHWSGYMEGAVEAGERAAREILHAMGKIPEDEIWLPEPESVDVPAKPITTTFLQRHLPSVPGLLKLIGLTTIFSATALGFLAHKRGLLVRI
Kind of data set: Catalytic constant was measured against monoamine oxidase B (MAO-B) from beef liver. To be noted: cattle.
`CN1CC=C(c2ccccc2)CC1` came in with a k cat of 3.4 s⁻¹.

The target in another data set is T1, Amine oxidase [flavin-containing] B. Kind of data set: Ratio of Kcat and KM against monoamine oxidase B (MAO-B) from beef liver was calculated. As to conditions: cattle.
With `CN1CC=C(C2CC2)CC1`, the Ratio is reported as 974.
In the case of `C1=C(c2ccccc2)CCNC1`, the Ratio is reported as 319.
On the same count and under the same terms, to `Cn1cccc1C1=CC=[N+](C2CC2)CC1` belongs 413; to `C1=C(Oc2cccs2)CC[N+](C2CC2)=C1`, 1900; to `CN1CC=C(/C=C\c2ccccc2)CC1`, 912.
`CN1CC=C(CCc2ccccc2)CC1`: the Ratio was 1130.
Still for that read-out and setting: to `C1=C(Cc2ccccc2)CC[N+](C2CC2)=C1` belongs 1538.
Still for that read-out and setting: under `CN1CC=C(OC(=O)N(C)c2ccccc2)CC1` stands 67; under `Clc1ccc(C2=CCNCC2)cc1`, 382.
On the same count and under the same terms, under `CCOC(=O)C1=CCN(C)CC1` stands 433; under `CN1CC=C(c2ccc(N)cc2)CC1`, 54; under `C1=C(Oc2ccccc2)CC[N+](C2CC2)=C1`, 1650.
As to `Clc1ccc(OC2=CC=[N+](C3CC3)CC2)cc1`, the Ratio is listed as 136.
Consider `C#CC1=CCN(C)CC1`, for which the Ratio is recorded as 790.
On the same count and under the same terms, under `C[C@@H]1NC(=O)[C@H](NC(=O)[C@@H](N)Cc2ccc(O)cc2)C(C)(C)SSC(C)(C)[C@@H](C(O)O)NC(=O)[C@H](Cc2ccccc2)NC1=O` stands 19; under `Cc1ccccc1C1=CC=[N+](C2CC2)CC1`, 630; under `CN1CC=C(Oc2ccccc2)CC1`, 4151.
On the same count and under the same terms, under `CN1CC=C(c2cccs2)CC1` stands 55.
Consider `CN1CC=C(C(C)(C)C)CC1`, for which the Ratio was 92.
Still for that read-out and setting: under `O=C([O-])C(=O)O.O=[N+]([O-])c1ccc(OC2=CC=[N+](C3CC3)CC2)cc1` stands 150; under `CCCN1CC=C(c2ccccc2)CC1`, 4; under `CN1CC=C(OC(=O)N(C)C)CC1`, 57.
Consider `CN1CC=C(Cn2cccc2)CC1`, for which the Ratio is on record as 347.
`CN1CC=C(c2ccc([N+](=O)[O-])cc2)CC1`: the Ratio was 16.
Same read-out and setting: to `C=CC1=CCN(C)CC1` belongs 2370; to `CN1CC=C(Cc2ccccc2)CC1`, 3580.
`CN1CC=C(C2CCCCC2)CC1`: the Ratio is on record as 688.
